Measured values from patent publication US20050148786A1, “Diimmonium compound and use thereof” (Nippon Kayaku Kabushiki Kaisha, priority 2003, published 2005).

Columns and labels:
[1] = maximum absorption wavelength (λmax) in dichloromethane; assay type: physicochemical
From the text: λmax: 1,102 nm (in dichloromethane);

[2] = thermal decomposition point (weight decrease starting point) by TG-DTA; assay type: physicochemical; details: measured by TG-DTA
Experimental: the melting point: around 170° C.; and the thermal decomposition point (the weight decrease starting point): around 280° C. (measured by TG-DTA)

[3] = Comparative test of molar absorption coefficient measurement; assay type: physicochemical; details: in dichloromethane; in M-1·cm-1
From the text: The compounds obtained in the above-mentioned Examples were subjected to the measurement of molar absorption coefficient (ε) in dichloromethane.

[4] = Stability test of moisture-and-heat resistance of near-IR absorption filter; assay type: physicochemical; details: for b* value, difference: 14-day after minus initial, 60° C. and 95% RH; for b* value, 14-day after / b* value, initial period: acrylic resin filter; for b* value, 14-day after: 14 days at 60° C. and 95% RH; for b* value, initial period: before test
Experimental: (§1) 1.2 part of each compound obtained in each Example was dissolved in 18.8 part of MEK. 80 part of a resin solution obtained by dissolving 25 part of an acrylic resin (Dianal BR-80, manufactured by Mitsubishi Rayon Co., Ltd.) in 75 part of MEK was mixed with the obtained solution to obtain a solution for coating. The solution was applied to form a film with a thickness of 2 to 4 μm on a polyester film and dried at 80° C. to obtain a near-IR absorption filter of the invention.
The obtained near-IR absorption filter was subjected to a stability test of moisture-and-heat resistance for 14 days in a constant temperature and constant humidity apparatus under 60° C. and 95% RH conditions. The filter was subjected to color measurement by a spectrophotometer before and after the test to calculate L*, a*, and b* values. If the + value of b* value is high, it means that the hue is yellowish and if b* value is close to 0, it means that the yellowish degree is low and filter is desirable and therefore, the hue evaluation and stability evaluation were done based on the b* value and its change.

[5] = Stability test of heat resistance of near-IR absorption filter; assay type: physicochemical; details: for b* value, initial period / b* value, 14-day after: acrylic resin filter; for b* value, initial period: before test; for b* value, 14-day after / b* value, difference: oven at 80° C.; for b* value, 14-day after: head prints 14-day, text 21 days; for b* value, difference: after minus initial
Experimental: as §1
[…] After that, the filters were subjected to color measurement by a spectrophotometer to calculate L*, a*, and b* values and their stability was evaluated based on the change in b* values. If the b* is low, that is, the absorption in visible ray region is low, the near-IR absorption filter is preferable.

[6] = Comparative test of solubility measurement; details: room temperature; for solubility in MEK: methyl ethyl ketone
Experimental: The solubility was measured for the compounds obtained in the above-mentioned Examples at a room temperature in methyl ethyl ketone (MEK) and toluene.

[7] = Stability test of light fastness of cyanine dye film; assay type: physicochemical
Experimental: 0.3 part of the cyanine dye (OM-57) was dissolved in 15 part of tetrafluoropropanol and 0.04 part of the Compound No. 3 was added to the obtained solution to produce a coating solution. The obtained coating solution was applied to a polycarbonate substrate by spin coating to form a dye film. The […] the conditions: light source output: 0.36 W/m^2; bath temperature: 24° C.; black panel temperature: 40° C.; humidity: 30% RH: by a Weatherometer (Ci4000, manufactured by Atlas Co.). After that, the remaining ratio of the cyanine dye was measured by a spectrophotometer.
For comparison, a dye film was formed and evaluated in the same manner, except that the compound described in Patent Document No. 3; hexafluoroantimonate of tetrakis[p-di(n-butyl)aminophenyl]phenylenediimmonium (Comparative Example 7: Compound No. 153); was used in place of the Compound No. 1.

[8] = Stability test of light fastness of diimmonium compound thin film; assay type: physicochemical
Experimental: 0.1 part of the Compound No. 3 was added to 10 part of tetrafluoropropanol to produce a coating solution. The obtained coating solution was applied to a polycarbonate substrate by spin coating to form a thin film of the diimmonium compound. The […] source output: 0.36 W/m^2; bath temperature: 24° C.; black panel temperature: 40° C.; humidity: 30% RH: by a Weatherometer (Ci4000, manufactured by Atlas Co.). After that, the remaining ratio of the diimmonium compound was measured by a spectrophotometer.
For comparison, a dye film was formed and evaluated in the same manner, except that the compound described in Patent Document No. 3; hexafluoroantimonate of tetrakis[p-di(n-butyl)aminophenyl]phenylenediimmonium (Comparative Example 8: Compound No. 153); was used in place of the Compound No. 3.

[9] = Weatherometer 0.36 W/m^2, 24° C., 30% RH, 100-hour
[10] = Weatherometer 0.36 W/m^2, 24° C., 30% RH, 150-hour

SMILES | λmax [1] | thermal decomposition point (the weight decrease starting point) [2] | molar absorption coefficient (ε) [3] | b* value, difference [4] | b* value, 14-day after [4] | b* value, initial period [4] | b* value, initial period [5] | b* value, 14-day after [5] | b* value, difference [5] | other results
CCCCN(CCCC)c1ccc([N+](=C2C=CC(=[N+](c3ccc(N(CCCC)CCCC)cc3)c3ccc(N(CCCC)CCCC)cc3)C=C2)c2ccc(N(CCCC)CCCC)cc2)cc1 [Compound No. 1] | 1,102 nm | around 280 °C | 108,000 | 1.8 | 5.3 | 3.5 | 3.5 | 5.3 | 1.8 | 
CC(C)CN(CC(C)C)c1ccc([N+](=C2C=CC(=[N+](c3ccc(N(CC(C)C)CC(C)C)cc3)c3ccc(N(CC(C)C)CC(C)C)cc3)C=C2)c2ccc(N(CC(C)C)CC(C)C)cc2)cc1 [Compound No. 2] | 1,104 nm | around 282 °C | 109,000 | 1.9 | 4.1 | 2.2 | 2.2 | 3.7 | 1.5 | 
CC(C)CCN(CCC(C)C)c1ccc([N+](=C2C=CC(=[N+](c3ccc(N(CCC(C)C)CCC(C)C)cc3)c3ccc(N(CCC(C)C)CCC(C)C)cc3)C=C2)c2ccc(N(CCC(C)C)CCC(C)C)cc2)cc1.O=S(=O)([N-]S(=O)(=O)C(F)(F)F)C(F)(F)F.O=S(=O)([N-]S(=O)(=O)C(F)(F)F)C(F)(F)F [Compound No. 4] | 1,102 nm | around 280 °C | 110,000 | 2.1 | 4.3 | 2.2 | 2.4 | 3.8 | 1.6 | solubility in MEK [6]: 10%; solubility in toluene [6]: 0.1%
N#CCCCCN(CCCCC#N)c1ccc([N+](=C2C=CC(=[N+](c3ccc(N(CCCCC#N)CCCCC#N)cc3)c3ccc(N(CCCCC#N)CCCCC#N)cc3)C=C2)c2ccc(N(CCCCC#N)CCCCC#N)cc2)cc1.O=S(=O)([N-]S(=O)(=O)C(F)(F)F)C(F)(F)F.O=S(=O)([N-]S(=O)(=O)C(F)(F)F)C(F)(F)F [Compound No. 9] | 1,086 nm | around 277 °C | 109,000 | 1.9 | 4.3 | 2.4 |  |  |  | 
CCN(CC)c1ccc([N+](=C2C=CC(=[N+](c3ccc(N(CC)CC)cc3)c3ccc(N(CC)CC)cc3)C=C2)c2ccc(N(CC)CC)cc2)cc1.O=S(=O)([N-]S(=O)(=O)C(F)(F)F)C(F)(F)F.O=S(=O)([N-]S(=O)(=O)C(F)(F)F)C(F)(F)F [Compound No. 12] | 1,084 nm | around 278 °C | 96,000 |  |  |  |  |  |  | 
CCCCN(CCCC#N)c1ccc([N+](=C2C=CC(=[N+](c3ccc(N(CCCC)CCCC#N)cc3)c3ccc(N(CCCC)CCCC#N)cc3)C=C2)c2ccc(N(CCCC)CCCC#N)cc2)cc1.O=S(=O)([N-]S(=O)(=O)C(F)(F)F)C(F)(F)F.O=S(=O)([N-]S(=O)(=O)C(F)(F)F)C(F)(F)F [Compound No. 35] | 1,090 nm | around 256 °C |  |  |  |  |  |  |  | 
CCCCN(CCCC)c1ccc([N+](=C2C=CC(=[N+](c3ccc(N(CCCC)CCCC)cc3)c3ccc(N(CCCC)CCCC)cc3)C=C2)c2ccc(N(CCCC)CCCC)cc2)cc1.O=S(=O)([O-])c1cccc2c(S(=O)(=O)[O-])cccc12 [Compound No. 151, 1,5-naphthalenedisulfonic acid salt of N,N,N′,N′-tetrakis[p-di(n-butyl)aminophenyl]phenylenediimmonium, reference compound] |  |  | 82,000 |  |  |  |  |  |  | 
CCCCN(CCCC)c1ccc([N+](=C2C=CC(=[N+](c3ccc(N(CCCC)CCCC)cc3)c3ccc(N(CCCC)CCCC)cc3)C=C2)c2ccc(N(CCCC)CCCC)cc2)cc1.O=S(=O)([O-])c1ccc2c(S(=O)(=O)[O-])cccc2c1O [Compound No. 152, 1-hydroxy-2,5-naphthalenedisulfonic acid salt of N,N,N′,N′-tetrakis[p-di(n-butyl)aminophenyl]phenylenediimmonium, reference compound] |  |  | 24,500 |  |  |  |  |  |  | 
CCCCN(CCCC)c1ccc([N+](=C2C=CC(=[N+](c3ccc(N(CCCC)CCCC)cc3)c3ccc(N(CCCC)CCCC)cc3)C=C2)c2ccc(N(CCCC)CCCC)cc2)cc1.[F][Sb-]([F])([F])([F])([F])[F].[F][Sb-]([F])([F])([F])([F])[F] [Compound No. 153, hexafluoroantimonate of N,N,N′,N′-tetrakis[p-di(n-butyl)aminophenyl]phenylenediimmonium, reference compound] |  |  |  |  |  |  | 2.5 | 4.4 | 1.9 | remaining ratio of cyanine dye (%), initial period ([7]; OM-57 dye film with compound added, before irradiation): 100%; remaining ratio of cyanine dye (%), 100-hour after [7, 9]: 27%; remaining ratio of cyanine dye (%), 150-hour after [7, 10]: 0%; remaining ratio of diimmonium compound (%), 100-hour after [8, 9]: 81%; remaining ratio of diimmonium compound (%), 150-hour after [8, 10]: 76%; remaining ratio of diimmonium compound (%), initial period ([8]; thin film on polycarbonate, before irradiation): 100%; solubility in MEK [6]: 4.5%; solubility in toluene [6]: insoluble
N#CCCCN(CCCC#N)c1ccc([N+](=C2C=CC(=[N+](c3ccc(N(CCCC#N)CCCC#N)cc3)c3ccc(N(CCCC#N)CCCC#N)cc3)C=C2)c2ccc(N(CCCC#N)CCCC#N)cc2)cc1.[F][Sb-]([F])([F])([F])([F])[F].[F][Sb-]([F])([F])([F])([F])[F] [Compound No. 154, hexafluoroantimonate of N,N,N′,N′-tetrakis[p-di(3-cyanopropyl)aminophenyl]phenylene diimmonium, reference compound] |  |  |  |  |  |  |  |  |  | solubility in MEK [6]: insoluble; solubility in toluene [6]: insoluble
CCCCN(CCCC)c1ccc([N+](=C2C=CC(=[N+](c3ccc(N(CCCC)CCCC)cc3)c3ccc(N(CCCC)CCCC)cc3)C=C2)c2ccc(N(CCCC)CCCC)cc2)cc1.F[P-](F)(F)(F)(F)F.F[P-](F)(F)(F)(F)F [Compound No. 155, hexafluorophosphate of N,N,N′,N′-tetrakis[p-di(n-butyl)aminophenyl]-p-phenylenediimmonium, reference compound] |  |  |  | 6.1 | 9.0 | 2.9 |  |  |  | 
CCCCN(CCCC)c1ccc([N+](=C2C=CC(=[N+](c3ccc(N(CCCC)CCCC)cc3)c3ccc(N(CCCC)CCCC)cc3)C=C2)c2ccc(N(CCCC)CCCC)cc2)cc1.F[B-](F)(F)F.F[B-](F)(F)F [Compound No. 156, borofluoride salt of N,N,N′,N′-tetrakis[p-di(n-butyl)aminophenyl]phenylene diimmonium, reference compound] |  |  |  | 10.8 | 14.3 | 3.5 |  |  |  | 
